Laboratory results taken from paper PMC9739792, “Screening and Molecular Mechanisms of Novel ACE-Inhibitory Peptides from Gracilariopsis lemaneiformis” (International Journal of Molecular Sciences, 2022).
Where no end group is shown, it is not given here.

How the values were obtained:
[1] = target: T1, ACE from rabbit lung (Oryctolagus cuniculus, UniProt P12822); assay: ACE-inhibitory activity assay (HHL substrate, hippuric acid by RP-HPLC); assay type: biochemical; conditions: HHL 5 mM, pH 8.3, 37 °C, 45 min; for inhibition at 1000 µg/mL: synthetic peptides dissolved at 1 mg/mL; for IC50: synthetic peptides, mean ± SD, SD, read-out: IC50 of ACE inhibition
T1 construct: ACE from rabbit lung (EC3.4.15.1); purchased Sigma-Aldrich; host or cells: rabbit lung tissue
T1 sequence (P12822 34-1310): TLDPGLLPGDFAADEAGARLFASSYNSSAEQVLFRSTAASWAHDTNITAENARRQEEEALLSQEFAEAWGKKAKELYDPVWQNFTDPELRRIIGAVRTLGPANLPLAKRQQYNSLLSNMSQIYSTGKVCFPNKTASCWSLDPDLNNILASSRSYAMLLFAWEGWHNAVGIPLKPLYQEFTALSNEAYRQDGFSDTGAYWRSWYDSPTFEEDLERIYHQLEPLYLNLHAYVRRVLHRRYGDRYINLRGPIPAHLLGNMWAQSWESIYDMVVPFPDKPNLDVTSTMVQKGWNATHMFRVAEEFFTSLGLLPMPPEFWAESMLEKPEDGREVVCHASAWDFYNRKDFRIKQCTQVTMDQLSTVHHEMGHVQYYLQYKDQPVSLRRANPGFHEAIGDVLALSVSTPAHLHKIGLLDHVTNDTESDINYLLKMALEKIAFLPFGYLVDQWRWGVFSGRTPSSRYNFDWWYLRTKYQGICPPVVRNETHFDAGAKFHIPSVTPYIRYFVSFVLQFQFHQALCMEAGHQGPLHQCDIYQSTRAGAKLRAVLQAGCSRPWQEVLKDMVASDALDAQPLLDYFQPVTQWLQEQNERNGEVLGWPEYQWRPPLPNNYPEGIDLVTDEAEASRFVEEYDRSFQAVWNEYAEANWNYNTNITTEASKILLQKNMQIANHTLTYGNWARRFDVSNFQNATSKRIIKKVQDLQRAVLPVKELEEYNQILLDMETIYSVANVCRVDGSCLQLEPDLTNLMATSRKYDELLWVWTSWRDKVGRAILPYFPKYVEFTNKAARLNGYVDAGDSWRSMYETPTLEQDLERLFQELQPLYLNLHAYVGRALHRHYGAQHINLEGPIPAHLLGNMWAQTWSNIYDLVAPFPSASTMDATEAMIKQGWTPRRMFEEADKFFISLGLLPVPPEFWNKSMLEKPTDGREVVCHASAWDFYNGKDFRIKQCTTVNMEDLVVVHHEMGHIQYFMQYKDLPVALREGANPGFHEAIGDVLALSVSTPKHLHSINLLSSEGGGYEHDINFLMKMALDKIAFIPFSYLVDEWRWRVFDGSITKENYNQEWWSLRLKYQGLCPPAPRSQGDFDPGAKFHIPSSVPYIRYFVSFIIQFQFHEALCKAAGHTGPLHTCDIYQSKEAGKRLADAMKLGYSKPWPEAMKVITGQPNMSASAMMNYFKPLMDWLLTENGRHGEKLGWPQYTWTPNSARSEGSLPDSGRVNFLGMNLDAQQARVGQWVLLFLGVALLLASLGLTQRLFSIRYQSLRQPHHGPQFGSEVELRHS
Description: The ACE-inhibitory activity was determined according to the method of Ma et al., with some modification. Briefly, 50 µL of sample in 0.1 mol/L borate buffer (pH 8.3, containing 0.3 M NaCl) was mixed with 150 µL of 5 mM hippuryl-l-histidyl-l-leucine (HHL) and incubated at 37 °C for 10 min. Then, the reaction was initiated by adding 50 µL of ACE solution (50 mU/mL) and incubating at 37 °C for 45 min. The reaction was then stopped by the addition of 250 µL of 1 M HCl. The formation of hippuric acid (HA) was measured by RP-HPLC (Waters, Milford, MA, USA) at 220 nm.
The screened and predicted potential ACE-inhibitory peptides were chemically synthesized at Genscript biotech corporation (Nanjing, China) using the Fmoc solid-phase method. […] Synthetic peptides were dissolved at 1 mg/mL for validation of their ACE-inhibitory activity.

[2] = tested on: spontaneously hypertensive rats (SHR); assay: Antihypertensive effect of GLP in SHR after oral administration; assay type: in vivo, rat; conditions: captopril 30 mg/kg·bw
Description: SHRs (male, 10 weeks, 220 ± 20 g body weight) were supplied by Vital River Laboratory Animal Technology Co., Ltd. (Beijing, China). […] Three doses of GLP (1200, 1500, 1800 mg/kg of body weight, BW) was orally administered to SHRs. The blank group (saline) and Captopril (30 mg/kg·bw) group were used as negative and positive control, respectively. BP-98A blood pressure monitor (Softron Biotechnology, Beijing, China) was used to determine blood pressure by the tail-cuff method. […] Animals were treated in accordance with the guidelines of the National Institutes of Health and Use of Laboratory Animals.

inhibition at 1000 µg/mL [1]	IC50 [1]	Compound	time course of antihypertensive effect compared with GLP [2]
87.7%	9.18 ± 0.42 µM	RLVPVPY [RLVPVPY]	–
–	–	C[C@H](CS)C(=O)N1CCC[C@H]1C(=O)O [captopril]	reached its maximum effect faster than GLP
94.2%	6.45 ± 0.22 µM	SFYYGK [SFYYGK]	–
